Source: the NIST ThermoML archive (doi:10.1016/j.jct.2013.08.010)

Assay: mn = molality of the nth substance listed, in mol/kg
Conditions: 101 kPa, Liquid; for speed of sound: Sing-around technique in a fixed-path interferometer; for mass density: Vibrating tube method

CC(C)[C@H](N)C(=O)O [L-valine] + O
Conditions	mass density, 288.15 K [kg/m3]	mass density, 298.15 K [kg/m3]	mass density, 308.15 K [kg/m3]	mass density, 318.15 K [kg/m3]	speed of sound, 288.15 K [m/s]	speed of sound, 298.15 K [m/s]	speed of sound, 308.15 K [m/s]	speed of sound, 318.15 K [m/s]
m1 = 0.00555	999.264	997.195	994.174	990.28	1467.4	1497.5	1520.4	1537.1
m1 = 0.02398	999.773	997.685	994.647	990.74	1467.3	1497.4	1520.4	1537.4
m1 = 0.03504	1000.08	997.977	994.929	991.014	1469.7	1499.6	1522	1538.7
m1 = 0.05824	1000.71	998.588	995.518	991.588	1469.6	1499.7	1522.6	1539
m1 = 0.07873	1001.27	999.124	996.034	992.09	1472.8	1502.4	1525	1541.2
m1 = 0.09938	1001.83	999.658	996.551	992.593	1474.8	1504.4	1526.9	1542.7
m1 = 0.2068	1004.69	1002.41	999.213	995.181	1477	1506.2	1528.2	1544.4
m1 = 0.2992	1007.1	1004.73	1001.45	997.351	1488.4	1516.6	1537.8	1552.5
m1 = 0.4017	1009.7	1007.24	1003.87	999.709	1497.2	1524.8	1545.2	1560.4

C[C@H](N)C(=O)O [(S)-2-aminopropanoic acid] + O
Conditions	mass density, 288.15 K [kg/m3]	mass density, 298.15 K [kg/m3]	mass density, 308.15 K [kg/m3]	mass density, 318.15 K [kg/m3]	speed of sound, 288.15 K [m/s]	speed of sound, 298.15 K [m/s]	speed of sound, 308.15 K [m/s]	speed of sound, 318.15 K [m/s]
m1 = 0.00939	999.393	997.32	994.294	990.395	1467.6	1497.9	1520.8	1537
m1 = 0.04689	1000.52	998.405	995.339	991.404	1469.9	1499.8	1522.7	1539.2
m1 = 0.09896	1002.07	999.9	996.777	992.791	1472.8	1502.8	1525.5	1542
m1 = 0.2003	1005.04	1002.78	999.545	995.459	1480.3	1509.6	1531.8	1547.9
m1 = 0.2979	1007.86	1005.5	1002.16	997.981	1487.3	1515.9	1537.9	1553.2
m1 = 0.3997	1010.74	1008.28	1004.85	1000.56	1494.3	1522.7	1544	1558.7
m1 = 0.4941	1013.38	1010.81	1007.28	1002.91	1500.3	1528	1549	1564.1
m1 = 0.6099	1016.55	1013.87	1010.22	1005.75	1509.5	1536.7	1556.8	1571.4
m1 = 0.6973	1018.88	1016.12	1012.38	1007.84	1513.3	1540.4	1560.7	1574.7
m1 = 0.7978	1021.55	1018.68	1014.85	1010.19	1520	1546.2	1566	1580.9

NCC(=O)O [2-aminoacetic acid] + O
Conditions	mass density, 288.15 K [kg/m3]	mass density, 298.15 K [kg/m3]	mass density, 308.15 K [kg/m3]	mass density, 318.15 K [kg/m3]	speed of sound, 288.15 K [m/s]	speed of sound, 298.15 K [m/s]	speed of sound, 308.15 K [m/s]	speed of sound, 318.15 K [m/s]
m1 = 0.01207	999.51	997.439	994.412	990.513	1467.2	1497.7	1520	1537.2
m1 = 0.0523	1000.84	998.74	–	991.747	1470.1	1500.1	1522.9	1538.9
m1 = 0.1037	1002.52	1000.39	997.281	993.309	1472.3	1502.3	1524.7	1541.1
m1 = 0.2037	1005.77	1003.57	1000.37	996.317	1477.8	1507.2	1529.7	1545.8
m1 = 0.3068	1009.07	1006.8	1003.51	–	1483.4	1512.4	1534.6	1551.4
m1 = 0.4124	1012.4	1010.06	1006.68	1002.46	1488.7	1517.8	1539.7	1555.4
m1 = 0.5028	1015.22	1012.82	1009.36	1005.06	1494.5	1523	1543.8	1560.2
m1 = 0.6058	1018.38	1015.9	1012.35	1007.97	1499.2	1527.3	1548.7	1564.1
m1 = 0.6829	1020.71	1018.19	1014.55	1010.1	1503.4	1531.3	1552.5	1567.7
m1 = 0.82	1024.83	1022.23	1018.45	1013.89	1510.2	1537.7	1558.6	1573.5
